For the assay, the target named is T1, α7 nAChR (rat α7/CHO cells) (Rattus norvegicus, UniProt Q05941).
T1 construct: expressed in transfected cells; host or cells: CHO cells (α7/CHO)
T1 sequence (Q05941 23-502): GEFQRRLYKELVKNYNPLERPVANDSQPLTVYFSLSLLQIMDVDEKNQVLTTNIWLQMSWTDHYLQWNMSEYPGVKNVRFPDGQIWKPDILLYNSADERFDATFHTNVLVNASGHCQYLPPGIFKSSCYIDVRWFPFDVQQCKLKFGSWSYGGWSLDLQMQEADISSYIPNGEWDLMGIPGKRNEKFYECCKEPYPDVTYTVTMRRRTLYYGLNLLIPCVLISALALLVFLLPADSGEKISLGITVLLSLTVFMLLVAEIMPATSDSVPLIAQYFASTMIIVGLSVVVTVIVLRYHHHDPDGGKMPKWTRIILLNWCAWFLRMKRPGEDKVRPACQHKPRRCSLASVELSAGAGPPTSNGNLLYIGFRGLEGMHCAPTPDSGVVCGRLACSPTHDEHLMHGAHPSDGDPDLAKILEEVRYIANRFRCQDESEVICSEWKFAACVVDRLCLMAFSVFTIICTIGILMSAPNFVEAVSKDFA
Briefly: Evaluation of modulators of α7 nAChRs using the IonFlux HT automated patch clamp system (potentiation of EC20 ACh-evoked currents). The assay is classed as cell-based. To be noted: percent potentiation of ACh (EC20, approx. 60 μM) response in α7/CHO cells; 6-point dose response 0.03-10 μM; whole cell patch clamp. The procedure:
Evaluation of Modulators of α7 nAChRs Using the IonFlux^HT Automated Patch Clamp System
Acetylcholine was freshly prepared for each plate run and used at an EC20 concentration (approximately 60 μM for rat α7/CHO) to induce α7 nAChR currents on the IonFlux^HT. To prepare the ACh solution for a single plate, 6 μl of the 100 mM ACh stock was diluted into 10 ml of 0.3% DMSO/external solution
Test compounds were prepared for a 6-point dose response from 0.03-10 μM. Working stocks were prepared from serial dilutions of 10 mM DMSO stock solutions to give a final DMSO concentration of 0.3%. 80 μl of the final concentration of each compound was added to the appropriate wells in an IonFlux^HT assay plate.
2×T175 flasks of α7/CHO cells (˜60-70% confluent) were washed twice with PBS and trypsinized (2 ml) for 3.5 minutes at 37° C./5% CO2. Cells were collected in F-12K complete media, counted and the number required for the assay was calculated, for example, 2×10^6 cells in a final volume of 670 μl of external solution were required to load one zone (one quarter) of an IonFlux^HT assay plate. The correct number of cells was pelleted by centrifuge, the supernatant was discarded and the cell pellet was resuspend in external solution at the required concentration so that cells were added in a volume of 80 μl per well to the IonFlux^HT assay plate.
Calculation of the Effect of Compounds on ACh Mediated Currents in α7 nAChRs:
The effect of test compounds on EC20 ACh-evoked currents was calculated by the formula: […]
The rinse protocol was the initial step in preparation of the IonFlux^HT plate. 80 μl of MilliQ water was added to every well (except Out wells) and the IonFlux^HT assay plate was run through the water rinse protocol on the machine. At the end of the run, the water was discarded from the wells. This action was repeated twice.
Briefly, to prepare the plate for the assay aliquots of cells, compounds and internal and external solutions were added to wells of the prepared IonFlux^HT plate (80 μl/well) (solutions made to manufacturer's specifications). Automated whole cell patch-clamp recordings were made using the standard IonFlux^HT single application protocol. Vacuum was held at 6 psi/hg throughout the experiment and membrane potential was held at −80 mV for 35 sec and then at −60 mV during data acquisition. Two ACh (EC20) pulses were applied at the beginning of the assay, 90 seconds apart, to provide an ACh baseline response then cells were perfused with modulators for 89 sec before ACh (EC20) was applied for 1 s. The calculation of percent potentiation of the acetylcholine response for each well was performed by the data analysis software supplied with the IonFlux^HT.
The following compounds were tested in accordance with the above-procedure for activity and the EC50 values determined are reported: […]
As for `COc1ccc(Cl)cc1OC[C@H]1[C@H](c2ccc(NS(C)(=O)=O)cc2)C1(C)C` (single isomer, unassigned) [Exp. 5], the EC50 came out at 193 nM.
The value for `COc1ccc(OC[C@H]2[C@H](c3ccc(NS(C)(=O)=O)cc3)C2(C)C)cn1` (single isomer, unassigned) [Exp. 6] was 596 nM; that for `Cc1cc(F)ccc1OC[C@H]1[C@H](c2ccc(NS(C)(=O)=O)cc2)C1(C)C` (single isomer, unassigned) [Exp. 7] was 1050 nM; that for `Cc1cc(F)ccc1OC[C@H]1[C@H](c2ccc(NS(N)(=O)=O)cc2)C1(C)C` (single isomer, unassigned) [Exp. 8] was 517 nM.
The value for `Cc1ccc(F)cc1OC[C@H]1[C@H](c2ccc(NS(N)(=O)=O)cc2)C1(C)C` (single isomer, unassigned) [Exp. 9] was 1750 nM; that for `CC1(C)[C@@H](COc2ccc(F)cc2C(F)(F)F)[C@@H]1c1ccc(S(N)(=O)=O)cc1` (single isomer, unassigned) [Exp. 10] was 429 nM.
Under `COc1ccc(Cl)cc1OC[C@H]1[C@H](c2ccc(S(N)(=O)=O)cc2)C1(C)C` (single isomer, unassigned) [Exp. 11] stands 3640 nM.
Consider `COc1ccc(Cl)cc1OC[C@@H]1[C@@H](c2ccc(S(N)(=O)=O)cc2)C1(C)C` (single isomer, unassigned) [Exp. 12], for which the EC50 is 1350 nM.
For the molecule `Cc1ccc(SC[C@H]2[C@H](c3ccc(S(N)(=O)=O)cc3)C2(C)C)cc1` (single isomer, unassigned) [Exp. 13], the EC50 is 70 nM.
Under `COc1ccc(Cl)cc1SC[C@@H]1[C@@H](c2ccc(S(N)(=O)=O)cc2)C1(C)C` (single isomer, unassigned) [Exp. 14] stands 452 nM; under `Cc1ccc(SC[C@@H]2[C@@H](c3ccc(S(N)(=O)=O)cc3)C2(C)C)cc1` (single isomer, unassigned) [Exp. 15], 75 nM.
Under `COc1ccc(Cl)cc1SC[C@H]1[C@H](c2ccc(S(N)(=O)=O)cc2)C1(C)C` (single isomer, unassigned) [Exp. 16] stands 125 nM.
For the molecule `COc1ccc(OC[C@H]2[C@H](c3ccc(NS(N)(=O)=O)cc3)C2(C)C)cn1` (single isomer, unassigned) [Exp. 17], the EC50 was found to be 4360 nM.
Regarding `Cc1ccc(OC[C@H]2[C@H](c3ccc(NS(N)(=O)=O)cc3)C2(C)C)cn1` (single isomer, unassigned) [Exp. 18], the EC50 was determined as 2300 nM.
The value for `Cc1ncccc1OC[C@H]1[C@H](c2ccc(NS(C)(=O)=O)cc2)C1(C)C` (single isomer, unassigned) [Exp. 19] was 350 nM; that for `Cc1ncccc1OC[C@H]1[C@H](c2ccc(NS(N)(=O)=O)cc2)C1(C)C` (single isomer, unassigned) [Exp. 20] was 3300 nM; that for `COc1ccc(OC[C@@H]2[C@@H](c3ccc(S(N)(=O)=O)cc3)C2(C)C)c(OC)n1` (single isomer, unassigned) [Exp. 21] was 3880 nM.
Under `CC1(C)[C@H](COc2cc(F)ccc2OC(F)F)[C@H]1c1ccc(S(N)(=O)=O)cc1` (single isomer, unassigned) [Exp. 22] stands 743 nM.
Under `COc1cc(Cl)ccc1OC[C@H]1[C@H](c2ccc(NS(N)(=O)=O)cc2)C1(C)C` (single isomer, unassigned) [Exp. 23] stands 546 nM; under `COc1cc(F)ccc1OC[C@H]1[C@H](c2ccc(NS(N)(=O)=O)cc2)C1(C)C` (single isomer, unassigned) [Exp. 24], 906 nM.
For the molecule `CC1(C)[C@@H](COc2cccnc2)[C@@H]1c1ccc(S(N)(=O)=O)cc1` (single isomer, unassigned) [Exp. 25], the EC50 was 4160 nM.
Under `COc1ccc(OC[C@H]2[C@H](c3ccc(S(N)(=O)=O)cc3)C2(C)C)c(OC)n1` (single isomer, unassigned) [Exp. 26] stands 606 nM.
Under `Cc1ccc(OC[C@@H]2[C@@H](c3ccc(S(N)(=O)=O)cc3)C2(C)C)cn1` (single isomer, unassigned) [Exp. 27] stands 3970 nM; under `CC1(C)[C@H](COc2ccc(F)cc2C#N)[C@H]1c1ccc(S(N)(=O)=O)cc1` (single isomer, unassigned) [Exp. 28], 3100 nM; under `COc1cc(F)ccc1OC[C@@H]1[C@@H](c2ccc(S(N)(=O)=O)cc2)C1(C)C` (single isomer, unassigned) [Exp. 29], 1240 nM.
Under `COc1cc(F)ccc1OC[C@H]1[C@H](c2ccc(S(N)(=O)=O)cc2)C1(C)C` (single isomer, unassigned) [Exp. 30] stands 2520 nM; under `Cc1cc(F)ccc1OC[C@H]1[C@H](c2ccc(S(N)(=O)=O)cc2)C1(C)C` (single isomer, unassigned) [Exp. 31], 200 nM; under `CC1(C)[C@@H](COc2ccc(F)cc2C#N)[C@@H]1c1ccc(S(N)(=O)=O)cc1` (single isomer, unassigned) [Exp. 32], 811 nM.
Consider `Cc1ccc(OC[C@H]2[C@H](c3ccc(S(N)(=O)=O)cc3)C2(C)C)cn1` (single isomer, unassigned) [Exp. 33], for which the EC50 is 546 nM.
Under `Cc1ncccc1OC[C@H]1[C@H](c2ccc(S(N)(=O)=O)cc2)C1(C)C` (single isomer, unassigned) [Exp. 34] stands 1620 nM; under `Cc1cc(F)ccc1OC[C@@H]1[C@@H](c2ccc(S(N)(=O)=O)cc2)C1(C)C` (single isomer, unassigned) [Exp. 35], 395 nM.
Under `COc1ccc(F)cc1OC[C@H]1[C@H](c2ccc(S(N)(=O)=O)cc2)C1(C)C` (single isomer, unassigned) [Exp. 36] stands 164 nM; under `N#Cc1cc(F)ccc1OC[C@@H]1C[C@H]1c1ccc(S(N)(=O)=O)cc1` (single isomer, unassigned) [Exp. 37], 6000 nM.
The value for `NS(=O)(=O)c1ccc([C@@H]2C[C@H]2COc2ccc(F)cc2C(F)(F)F)cc1` (single isomer, unassigned) [Exp. 38] was 1140 nM; that for `COc1ccc(OC[C@@H]2C[C@H]2c2ccc(S(N)(=O)=O)cc2)c(OC)n1` (single isomer, unassigned) [Exp. 39] was 5360 nM; that for `COc1ccc(Cl)cc1OC[C@@H]1C[C@H]1c1ccc(S(N)(=O)=O)cc1` (single isomer, unassigned) [Exp. 40] was 1060 nM.
For the molecule `COc1cc(F)ccc1OC[C@@H]1C[C@H]1c1ccc(S(N)(=O)=O)cc1` (single isomer, unassigned) [Exp. 41], the EC50 came out at 2590 nM.
The value for `CC1(C)[C@H](COc2ccccc2OC(F)F)[C@H]1c1ccc(S(N)(=O)=O)cc1` (single isomer, unassigned) [Exp. 42] was 625 nM; that for `COc1ccc(F)cc1OC[C@@H]1[C@@H](c2ccc(S(N)(=O)=O)cc2)C1(C)C` (single isomer, unassigned) [Exp. 43] was 1560 nM; that for `COc1cc(F)ccc1OC[C@H]1C[C@@H]1c1ccc(S(N)(=O)=O)cc1` (single isomer, unassigned) [Exp. 44] was 2940 nM.
With `N#Cc1cc(F)ccc1OC[C@H]1C[C@@H]1c1ccc(S(N)(=O)=O)cc1` (single isomer, unassigned) [Exp. 45], the EC50 came to 2510 nM.
Under `NS(=O)(=O)c1ccc([C@H]2C[C@@H]2COc2ccc(F)cc2C(F)(F)F)cc1` (single isomer, unassigned) [Exp. 46] stands 701 nM.

The EC50 is the concentration giving half of the maximal effect.

These data come from patent US9994518B2, “Alpha-7 nicotinic acetylcholine receptor modulators and uses thereof” (MERCK SHARP & DOHME CORP., priority 2014, dated 2018).
